One assay concerns the target human mTOR (Homo sapiens, UniProt P42345). In words: Inhibition of mTOR kinase activity, HotSpot assay, phosphorylation of 4EPB1. The settings on record: Inhibition of kinase activity (as IC50) mTOR (nM), 10 μM ATP; mean of two replicates; Table 12.
For another assay, the target named is human PI3Kα (p110α/p85α) (Homo sapiens, UniProt P42336). In words: Inhibition of PI3Kα kinase activity, ADP-Glo Assay (Reaction Biology). Format: biochemical. The settings on record: 10 μM ATP; mean of two replicates; Table 12; read-out: Inhibition of kinase activity (as IC50) PICK.
Another assay deals with human DNA-PK (Homo sapiens, UniProt P78527). In words: Inhibition of DNA-PKcs kinase activity, HotSpot assay (Reaction Biology), [γ-33P]-ATP phosphorylation of peptide substrate. Format: biochemical. The settings on record: 10 μM ATP, 10 μg/ml DNA; mean of two replicates; Table 12; read-out: Inhibition of kinase activity (as IC50) DNA-PK (converted).
The next assay relates to UT-SCC-54C cells. Description: Radiosensitisation of UT-SCC-54C HNSCC cells, regrowth (sulforhodamine B) assay, oxic (Table 16). Particulars: for IC50: Homo sapiens, read-out: IC50; for S50: compound in combination with 3 Gy of radiation, 50% inhibition of regrowth fraction, UT-SCC-54C. Format: cell-based, human.

These results are taken from patent publication US20230365559A1, “NOVEL AMINOPYRIDINES AND THEIR USE IN TREATING CANCER” (priority 2020, published 2023).

The IC50 is the point on the concentration scale where inhibition reaches its midpoint.

Sequence of human PI3Kα (p110α/p85α) (P42336 whole entry): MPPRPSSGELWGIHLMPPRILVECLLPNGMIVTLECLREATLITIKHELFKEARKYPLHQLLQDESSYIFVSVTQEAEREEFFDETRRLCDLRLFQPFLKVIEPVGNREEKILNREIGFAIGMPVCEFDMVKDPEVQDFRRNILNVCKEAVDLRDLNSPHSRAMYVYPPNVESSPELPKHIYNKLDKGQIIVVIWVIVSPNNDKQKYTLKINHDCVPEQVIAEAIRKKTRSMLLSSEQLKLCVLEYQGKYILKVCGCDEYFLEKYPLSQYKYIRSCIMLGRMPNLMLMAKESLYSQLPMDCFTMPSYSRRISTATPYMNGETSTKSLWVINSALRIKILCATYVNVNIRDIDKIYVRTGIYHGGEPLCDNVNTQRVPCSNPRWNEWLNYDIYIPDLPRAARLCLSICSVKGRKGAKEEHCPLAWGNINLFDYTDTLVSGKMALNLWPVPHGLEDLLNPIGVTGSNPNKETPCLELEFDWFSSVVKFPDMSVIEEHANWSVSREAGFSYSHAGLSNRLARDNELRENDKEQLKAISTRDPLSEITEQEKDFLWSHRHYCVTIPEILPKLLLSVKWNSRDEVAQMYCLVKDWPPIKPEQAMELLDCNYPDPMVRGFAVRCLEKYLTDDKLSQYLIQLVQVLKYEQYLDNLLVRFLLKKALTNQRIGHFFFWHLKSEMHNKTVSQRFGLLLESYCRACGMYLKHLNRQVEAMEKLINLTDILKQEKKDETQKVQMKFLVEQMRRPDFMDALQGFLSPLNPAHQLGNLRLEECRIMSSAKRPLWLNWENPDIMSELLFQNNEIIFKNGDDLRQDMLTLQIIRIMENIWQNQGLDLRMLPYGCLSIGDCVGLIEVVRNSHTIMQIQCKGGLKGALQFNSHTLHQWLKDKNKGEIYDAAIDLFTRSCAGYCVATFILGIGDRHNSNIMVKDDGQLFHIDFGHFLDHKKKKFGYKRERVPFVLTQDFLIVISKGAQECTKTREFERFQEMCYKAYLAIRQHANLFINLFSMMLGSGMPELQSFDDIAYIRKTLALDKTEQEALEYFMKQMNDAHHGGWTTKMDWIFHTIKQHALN
Sequence of human PI3Kα (p110α/p85α) (P27986 whole entry partner): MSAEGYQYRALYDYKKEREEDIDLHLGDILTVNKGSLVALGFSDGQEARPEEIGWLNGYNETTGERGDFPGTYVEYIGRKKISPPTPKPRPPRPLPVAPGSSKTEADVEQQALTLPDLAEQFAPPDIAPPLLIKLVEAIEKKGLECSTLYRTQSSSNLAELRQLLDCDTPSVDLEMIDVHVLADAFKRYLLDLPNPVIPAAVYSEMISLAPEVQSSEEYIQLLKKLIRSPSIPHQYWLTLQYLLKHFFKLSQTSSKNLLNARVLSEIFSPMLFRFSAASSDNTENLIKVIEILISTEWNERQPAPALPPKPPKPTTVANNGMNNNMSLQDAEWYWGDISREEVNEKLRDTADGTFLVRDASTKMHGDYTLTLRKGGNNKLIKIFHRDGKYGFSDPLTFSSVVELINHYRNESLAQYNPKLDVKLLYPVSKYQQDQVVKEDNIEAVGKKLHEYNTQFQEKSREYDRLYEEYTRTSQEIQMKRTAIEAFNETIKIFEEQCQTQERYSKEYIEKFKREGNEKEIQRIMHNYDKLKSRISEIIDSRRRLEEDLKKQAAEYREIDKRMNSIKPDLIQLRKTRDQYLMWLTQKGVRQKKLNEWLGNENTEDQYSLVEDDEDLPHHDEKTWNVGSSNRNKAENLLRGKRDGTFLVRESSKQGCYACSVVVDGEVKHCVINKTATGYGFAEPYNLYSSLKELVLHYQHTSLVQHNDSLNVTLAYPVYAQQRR

Take `Cc1ccc(S(C)(=O)=O)cc1Nc1cc2c(cn1)n(C)c(=O)n2C1CCOCC1` [Compound 123, 3-Methyl-6-((2-methyl-5-(methylsulfonyl)phenyl)amino)-1-(tetrahydro-2H-pyran-4-yl)-1,3-dihydro-2H-imidazo[4,5-c]pyridin-2-one]: the IC50 at human mTOR was above 100000 nM; at human PI3Kα (p110α/p85α) it was 678 nM; at human DNA-PK, 0.13 nM; with UT-SCC-54C cells it was above 10 µM. In the assay with UT-SCC-54C cells (oxic), the “S50” value worked out at 0.74 µM.
Turning to `Cc1nc2ccc(Nc3cc4c(cn3)n(C)c(=O)n4C3CCOCC3)cc2o1` [Compound 128, 3-Methyl-6-((2-methylbenzo[d]oxazol-6-yl)amino)-1-(tetrahydro-2H-pyran-4-yl)-1,3-dihydro-2H-imidazo[4,5-c]pyridin-2-one], the IC50 against human mTOR was above 100000 nM; at human PI3Kα (p110α/p85α), above 10000 nM; on human DNA-PK, 1420 nM.
`Cc1cc2c(cc1Nc1cc3c(cn1)n(C)c(=O)n3C1CCOCC1)OCO2` [Compound 130, 3-Methyl-6-((6-methylbenzo[d][1,3]dioxol-5-yl)amino)-1-(tetrahydro-2H-pyran-4-yl)-1,3-dihydro-2H-imidazo[4,5-c]pyridin-2-one]: the 50% inhibitory concentration (IC50) against human mTOR is 10800 nM; on human PI3Kα (p110α/p85α) it was 2530 nM; at human DNA-PK, 3.05 nM; with UT-SCC-54C cells, above 10 µM. Also, in the assay with UT-SCC-54C cells (oxic), the “S50” value turned out to be 0.50 µM.
Turning to `Cc1nc2cc(Nc3cc4c(cn3)n(C)c(=O)n4C3CCOCC3)c(C)cc2o1` [Compound 131, 6-((2,6-Dimethylbenzo[d]oxazol-5-yl)amino)-3-methyl-1-(tetrahydro-2H-pyran-4-yl)-1,3-dihydro-2H-imidazo[4,5-c]pyridin-2-one], the 50% inhibitory concentration (IC50) against human mTOR is 13400 nM; on human PI3Kα (p110α/p85α) it was 11000 nM; on human DNA-PK it was 47.7 nM; with UT-SCC-54C cells it was above 10 µM. For the same compound, the “S50” value with UT-SCC-54C cells (oxic) was 4.8 µM.
As to `Cc1cc2ncc(C(=O)O)n2cc1Nc1cc2c(cn1)n(C)c(=O)n2C1CCOCC1` [Compound 136, 7-Methyl-6-((3-methyl-2-oxo-1-(tetrahydro-2H-pyran-4-yl)-2,3-dihydro-1H-imidazo[4,5-c]pyridin-6-yl)amino)imidazo[1,2-a]pyridine-3-carboxylic acid], the IC50 against human mTOR was 19600 nM; at human PI3Kα (p110α/p85α) it was 151 nM; on human DNA-PK it was 3.6 nM.
For `Cc1cc(Cl)ccc1Nc1cc2c(cn1)n(C)c(=O)n2CCC1CCOCC1` [Compound 147, 6-((4-Chloro-2-methylphenyl)amino)-3-methyl-1-(2-(tetrahydro-2H-pyran-4-yl)ethyl)-1,3-dihydro-2H-imidazo[4,5-c]pyridin-2-one], the IC50 against human mTOR was 7900 nM; at human PI3Kα (p110α/p85α) it was 490 nM; on human DNA-PK, 11 nM; in the assay on UT-SCC-54C cells it was above 10 µM. Besides, the “S50” value in the assay with UT-SCC-54C cells (oxic) stood at 0.97 µM.
For `COC1CCC(n2c(=O)n(C)c3cnc(Nc4ccc(Cl)cc4C)cc32)CC1` (stereo not shown) [Compound 173, 6-((4-Chloro-2-methylphenyl)amino)-1-(4-methoxycyclohexyl)-3-methyl-1,3-dihydro-2H-imidazo[4,5-c]pyridin-2-one], in that order: 27500 nM, 2170 nM, 0.64 nM, above 10 µM and 0.85 µM.
In the case of `COc1ccc(-n2c(=O)n(C)c3cnc(Nc4cc(S(C)(=O)=O)ccc4C)cc32)cc1` [Compound 197, 1-(4-Methoxyphenyl)-3-methyl-6-((2-methyl-5-(methylsulfonyl)phenyl)amino)-1,3-dihydro-2H-imidazo[4,5-c]pyridin-2-one], the IC50 against human mTOR is 33400 nM; at human PI3Kα (p110α/p85α), 33 nM; at human DNA-PK it was 0.09 nM.
On to `COc1ccc(-n2c(=O)n(C)c3cnc(Nc4ccc(O)cc4C)cc32)cc1` [Compound 200, 6-((4-Hydroxy-2-methylphenyl)amino)-1-(4-methoxyphenyl)-3-methyl-1,3-dihydro-2H-imidazo[4,5-c]pyridin-2-one], for which the IC50 is 19500 nM on human mTOR, 264 nM at human PI3Kα (p110α/p85α), below 0.05 nM at human DNA-PK and above 10 µM with UT-SCC-54C cells. In the assay with UT-SCC-54C cells (oxic), the “S50” value was determined as 0.31 µM.
For `COc1cc(C)c(Nc2cc3c(cn2)n(C)c(=O)n3C2CCOCC2)cc1OC` [Compound 216, 6-((4,5-Dimethoxy-2-methylphenyl)amino)-3-methyl-1-(tetrahydro-2H-pyran-4-yl)-1,3-dihydro-2H-imidazo[4,5-c]pyridin-2-one], the IC50 against human mTOR was 42700 nM; at human PI3Kα (p110α/p85α) it was 4620 nM; at human DNA-PK, 390 nM; in the assay with UT-SCC-54C cells, above 10 µM. For the same compound, the “S50” value in the assay with UT-SCC-54C cells (oxic) was 7.4 µM.
On to `Cc1cc(Cl)cnc1Nc1cc2c(cn1)n(C)c(=O)n2C1CCOCC1` [Compound 217, 6-((5-Chloro-3-methylpyridin-2-yl)amino)-3-methyl-1-(tetrahydro-2H-pyran-4-yl)-1,3-dihydro-2H-imidazo[4,5-c]pyridin-2-one], for which the IC50 is 76300 nM at human mTOR, 33100 nM on human PI3Kα (p110α/p85α), 52 nM on human DNA-PK and above 10 µM with UT-SCC-54C cells. Besides, the “S50” value in the assay on UT-SCC-54C cells (oxic) came out at 3.9 µM.
For `Cc1cc(Cl)ncc1Nc1cc2c(cn1)n(C)c(=O)n2C1CCOCC1` [Compound 218, 6-((6-Chloro-4-methylpyridin-3-yl)amino)-3-methyl-1-(tetrahydro-2H-pyran-4-yl)-1,3-dihydro-2H-imidazo[4,5-c]pyridin-2-one] the same measures were 68400 nM, 14200 nM, 94 nM, above 10 µM and 3.1 µM.
Turning to `Cc1nc(Cl)ccc1Nc1cc2c(cn1)n(C)c(=O)n2C1CCOCC1` [Compound 219, 6-((6-Chloro-2-methylpyridin-3-yl)amino)-3-methyl-1-(tetrahydro-2H-pyran-4-yl)-1,3-dihydro-2H-imidazo[4,5-c]pyridin-2-one], the IC50 against human mTOR was above 100000 nM; on human PI3Kα (p110α/p85α), 20800 nM; on human DNA-PK it was 270 nM.
Take `COc1cnc(Nc2cc3c(cn2)n(C)c(=O)n3C2CCOCC2)c(C)c1` [Compound 220, 6-((5-Methoxy-3-methylpyridin-2-yl)amino)-3-methyl-1-(tetrahydro-2H-pyran-4-yl)-1,3-dihydro-2H-imidazo[4,5-c]pyridin-2-one]: the IC50 at human mTOR is above 100000 nM; on human PI3Kα (p110α/p85α), 24000 nM; at human DNA-PK, 170 nM; in the assay on UT-SCC-54C cells it was above 10 µM. The “S50” value in the assay with UT-SCC-54C cells (oxic) turned out to be 4.4 µM.
For `COc1ccc(Nc2cc3c(cn2)n(C)c(=O)n3C2CCOCC2)c(C)n1` [Compound 221, 6-((6-Methoxy-2-methylpyridin-3-yl)amino)-3-methyl-1-(tetrahydro-2H-pyran-4-yl)-1,3-dihydro-2H-imidazo[4,5-c]pyridin-2-one], the IC50 against human mTOR was above 100000 nM; on human PI3Kα (p110α/p85α), 9360 nM; at human DNA-PK, 441 nM.
Regarding `COc1ccc(-c2ccc(Nc3cc4c(cn3)n(C)c(=O)n4C3CCOCC3)cc2)cn1` [Compound 223, 6-((4-(6-Methoxypyridin-3-yl)phenyl)amino)-3-methyl-1-(tetrahydro-2H-pyran-4-yl)-1,3-dihydro-2H-imidazo[4,5-c]pyridin-2-one], the IC50 was 41200 nM against human mTOR, 11800 nM at human PI3Kα (p110α/p85α) and 3940 nM on human DNA-PK.
As for `Cc1cc2nccnc2cc1Nc1cc2c(cn1)n(C)c(=O)n2C1CCOCC1` [Compound 225, 3-Methyl-6-((7-methylquinoxalin-6-yl)amino)-1-(tetrahydro-2H-pyran-4-yl)-1,3-dihydro-2H-imidazo[4,5-c]pyridin-2-one], the IC50 was 58500 nM on human mTOR, 1650 nM at human PI3Kα (p110α/p85α), 3.4 nM at human DNA-PK and above 10 µM with UT-SCC-54C cells. In addition, in the assay with UT-SCC-54C cells (oxic), the “S50” value worked out at 0.27 µM.
Regarding `COc1ccc(N(C(=O)OCc2cnc([N+](=O)[O-])n2C)c2cc3c(cn2)n(C)c(=O)n3C2CCCC2)c(C)c1` [Compound 247, (1-Methyl-2-nitro-1H-imidazol-5-yl)methyl (1-cyclopentyl-3-methyl-2-oxo-2,3-dihydro-1H-imidazo[4,5-c]pyridin-6-yl)(4-methoxy-2-methylphenyl)carbamate], the IC50 was above 100000 nM against human mTOR, above 10000 nM on human PI3Kα (p110α/p85α), 871 nM at human DNA-PK and above 10 µM in the assay on UT-SCC-54C cells. Moreover, the “S50” value in the assay on UT-SCC-54C cells (oxic) was above 10 µM. Further, the “radiosensitisation / differential growth inhibition of UT-SCC-54C cells” value in the assay with UT-SCC-54C cells (oxic, 0 or 3 Gy, regrowth assay) is “did not display any differential growth inhibition”.
On to `COc1ccc(Nc2cc3c(cn2)n(C)c(=O)n3C2CCN(C(=O)OCc3cnc([N+](=O)[O-])n3C)CC2)c(C)c1` [Compound 252, (1-Methyl-2-nitro-1H-imidazol-5-yl)methyl 4-(6-((4-methoxy-2-methylphenyl)amino)-3-methyl-2-oxo-2,3-dihydro-1H-imidazo[4,5-c]pyridin-1-yl)piperidine-1-carboxylate], for which the IC50 on human mTOR is 15600 nM; at human PI3Kα (p110α/p85α), 740 nM; at human DNA-PK, 104 nM.
Take `COc1ccc(Nc2cc3c(cn2)n(C)c(=O)n3C2CCC(NC(=O)OCc3cnc([N+](=O)[O-])n3C)CC2)c(C)c1` (stereo not shown) [Compound 253, (1-Methyl-2-nitro-1H-imidazol-5-yl)methyl (4-(6-((4-methoxy-2-methylphenyl)amino)-3-methyl-2-oxo-2,3-dihydro-1H-imidazo[4,5-c]pyridin-1-yl)cyclohexyl)carbamate]: the IC50 was 11400 nM against human mTOR, 296 nM on human PI3Kα (p110α/p85α) and 58 nM at human DNA-PK.
